The values below come from US8557818B2, “Compounds useful as protein kinase inhibitors” (Vertex Phamaceuticals Incorporated, priority 2006, dated 2013).

Each structure is given as a SMILES string.

PLK1, sequence (P53350 whole entry): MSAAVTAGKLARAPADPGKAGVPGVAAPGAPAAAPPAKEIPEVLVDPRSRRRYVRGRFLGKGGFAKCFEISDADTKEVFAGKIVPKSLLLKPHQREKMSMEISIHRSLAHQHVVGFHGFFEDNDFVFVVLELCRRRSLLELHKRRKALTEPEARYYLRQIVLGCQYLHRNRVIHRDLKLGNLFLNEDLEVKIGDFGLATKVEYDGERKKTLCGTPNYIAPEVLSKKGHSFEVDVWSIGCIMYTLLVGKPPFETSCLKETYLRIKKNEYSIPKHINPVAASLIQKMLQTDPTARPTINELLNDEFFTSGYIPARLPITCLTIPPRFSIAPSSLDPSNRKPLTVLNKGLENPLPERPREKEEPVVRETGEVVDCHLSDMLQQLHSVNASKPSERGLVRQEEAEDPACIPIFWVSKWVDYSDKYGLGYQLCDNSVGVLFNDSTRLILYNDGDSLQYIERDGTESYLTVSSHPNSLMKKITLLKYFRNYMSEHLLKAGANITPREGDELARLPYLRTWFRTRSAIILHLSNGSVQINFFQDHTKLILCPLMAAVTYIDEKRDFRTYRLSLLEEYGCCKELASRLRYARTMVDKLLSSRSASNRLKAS

This assay addresses PLK1 (Homo sapiens, UniProt P53350). As to the kind of experiment: PLK1 Inhibition Assay 1 (radioactive-phosphate incorporation assay). The format is biochemical. Particulars: Ki(app), [γ-33P]ATP 350 μM, peptide 450 μM, 1 nM PLK1 for values of <1 nM. The method, then:
Compounds of the present invention are evaluated as inhibitors of human PLK using the following assays.
Compounds were screened for their ability to inhibit PLK1 using a radioactive-phosphate incorporation assay. Assays were carried out in a mixture of 25 mM HEPES (pH 7.5), 10 mM MgCl2, 0.1% BSA, and 2 mM DTT. Final substrate concentrations were 150 μM (350 μM for determining values of <1 nM) [γ-33P]ATP (115 mCi 33P ATP/mmol ATP, Amersham Pharmacia Biotech/Sigma Chemicals) and 300 μM (450 μM for determining values of <1 nM) peptide (KKKISDELMDATFADQEAK)[SEQ ID:1]. Assays were carried out at 25° C. in the presence of 4 nM (1 nM for determining values of <1 nM) PLK1. An assay stock buffer solution was prepared containing all of the reagents listed above, with the exception of ATP and the test compound of interest. 30 μL of the stock solution was placed in a 96 well plate followed by addition of 2 μL of DMSO stock containing serial dilutions of the test compound (typically starting from a final concentration of 10 μM with 2-fold serial dilutions) in duplicate (final DMSO concentration 5%). The plate was pre-incubated for 10 minutes at 25° C. and the reaction initiated by addition of 8 μL [γ-33P]ATP (final concentration 150 μM (350 μM for determining values of <1 nM))).
The reaction was stopped after 90 minutes (240 minutes for determining values of <1 nM) by the addition of 100 μL 0.14M phosphoric acid. A multiscreen phosphocellulose filter 96-well plate (Millipore, Cat no. MAPHN0B50) was pretreated with 100 μL 0.2M phosphoric acid prior to the addition of 125 μL of the stopped assay mixture. The plate was washed with 4×200 μL 0.2M phosphoric acid. […]
After removing mean background values for all of the data points, Ki(app) data were calculated from non-linear regression analysis of the initial rate data using the Prism software package (GraphPad Prism version 3.0cx for Macintosh, GraphPad Software, San Diego Calif., USA).
As to `CC[C@@H]1c2cncn2-c2cnc(Nc3ccc(C(=O)NC4CC4)cc3OC)nc2N1C1CCCC1` [Compound I-6, (R)-4-(5-cyclopentyl-6-ethyl-5,6-dihydroimidazo[1,5-f]pteridin-3-ylamino)-N-cyclopropyl-3-methoxybenzamide], the Ki was less than 1 nM.

`CC[C@@H]1c2cncn2-c2cnc(Nc3ccc(C(=O)NC)cc3OC)nc2N1C1CCCC1` [Compound I-4, (R)-4-(5-cyclopentyl-6-ethyl-5,6-dihydroimidazo[1,5-f]pteridin-3-ylamino)-3-methoxy-N-methylbenzamide]: the Ki is less than 1 nM. With `CC[C@@H]1c2c(C(=O)O)ncn2-c2cnc(Nc3ccc(C(=O)NC)cc3OC)nc2N1C1CCCC1` [Compound I-2, (R)-3-(4-(methylcarbamoyl)-2-methoxyphenylamino)-5-cyclopentyl-6-ethyl-5,6-dihydroimidazo[1,5-f]pteridine-7-carboxylic acid] the figure was less than 1 nM.
